IC50 data for 29 compounds are collected here from patent publication US6855730B2, “3-methylidenyl-2-indolinone modulators of protein kinase” (Sugen, Inc., priority 1998, dated 2005).

Sequence of EGFR (P00533 25-1210): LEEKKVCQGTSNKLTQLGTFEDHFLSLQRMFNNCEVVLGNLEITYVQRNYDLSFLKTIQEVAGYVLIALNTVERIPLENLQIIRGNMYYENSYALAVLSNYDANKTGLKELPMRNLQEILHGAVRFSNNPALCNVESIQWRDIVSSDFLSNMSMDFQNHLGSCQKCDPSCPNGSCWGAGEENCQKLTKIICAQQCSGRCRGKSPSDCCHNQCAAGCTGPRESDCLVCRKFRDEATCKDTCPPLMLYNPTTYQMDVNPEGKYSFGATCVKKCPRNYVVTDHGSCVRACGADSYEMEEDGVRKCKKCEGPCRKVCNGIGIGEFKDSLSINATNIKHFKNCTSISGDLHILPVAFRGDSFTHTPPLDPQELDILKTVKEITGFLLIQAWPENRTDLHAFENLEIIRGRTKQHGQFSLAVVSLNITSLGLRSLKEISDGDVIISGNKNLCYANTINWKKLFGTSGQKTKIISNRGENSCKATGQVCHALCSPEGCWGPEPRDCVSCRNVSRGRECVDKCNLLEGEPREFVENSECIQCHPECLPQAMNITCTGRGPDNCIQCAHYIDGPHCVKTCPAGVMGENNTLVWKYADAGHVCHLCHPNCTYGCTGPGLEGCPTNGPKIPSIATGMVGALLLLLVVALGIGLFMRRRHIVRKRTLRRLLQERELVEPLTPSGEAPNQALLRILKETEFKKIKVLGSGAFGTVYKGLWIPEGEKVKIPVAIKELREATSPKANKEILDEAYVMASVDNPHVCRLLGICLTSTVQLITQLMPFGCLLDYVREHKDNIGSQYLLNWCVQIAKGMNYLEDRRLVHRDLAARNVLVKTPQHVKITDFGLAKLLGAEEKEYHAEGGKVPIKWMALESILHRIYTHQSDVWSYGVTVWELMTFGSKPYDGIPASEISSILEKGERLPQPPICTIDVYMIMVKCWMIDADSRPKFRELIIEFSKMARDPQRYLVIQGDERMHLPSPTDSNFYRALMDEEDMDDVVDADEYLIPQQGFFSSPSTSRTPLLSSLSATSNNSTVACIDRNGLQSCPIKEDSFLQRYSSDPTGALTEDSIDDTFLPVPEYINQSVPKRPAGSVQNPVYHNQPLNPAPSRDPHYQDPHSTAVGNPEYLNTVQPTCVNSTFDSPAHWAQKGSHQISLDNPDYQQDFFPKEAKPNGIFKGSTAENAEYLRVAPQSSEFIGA

The assay addresses EGFR (Homo sapiens, UniProt P00533). As to the kind of experiment: EGFR assay (cellular ELISA, NIH 3T3/C7 cells). The note with it: read-out: cell EGF IC50. The arrangement: expressed in transfected cells; host or cells: NIH 3T3/C7. In kind it is cell-based. The method, then:
EGF Receptor kinase activity in cells genetically engineered to express human EGF-R can be measured as described below:
Materials and Reagents. • a. […] 05-101 (UBI) (a monoclonal antibody recognizing an EGFR extracellular domain). • c. Anti-phosphotyosine antibody (anti-Ptyr) (polyclonal). • d. Detection antibody: Goat anti-rabbit IgG horse radish peroxidase conjugate, TAGO, Inc. Burlingame, Calif. • e. TBST buffer:
• Keep solution in dark at 4° C. until used. • h. Stock reagents of:
Pre-coat ELISA Plate • 1. […] Coated plates are good for up to 10 days when stored at 4° C. • 2. On day-of use, remove coating buffer and replace with blocking buffer (5% Carnation Instant NonFat Dry Milk in PBS). Incubate the plate, shaking, at room temperature (about 23° C. to 25° C.) for 30 minutes. Just prior to use, remove blocking buffer and wash plate 4 times with TBST buffer.
Seeding Cells • 1. […] Choose dishes having 80-90% confluence for the experiment. Trypsinize cells and stop reaction by adding 10% CS DMEM medium. Suspend cells in DMEM medium (10% CS DMEM medium) and centrifuge once at 1000 rpm at room temperature for 5 minutes. • 3. Resuspend cells in seeding medium (DMEM, 0.5% bovine serum), and count the cells using trypan blue. Viability above 90% is acceptable. Seed cells in DMEM medium (0.5% bovine serum) at a density of 10,000 cells per well, 100 μl per well, in a 96 well microtiter plate. Incubate seeded cells in 5% CO2 at 37° C. for about 40 hours.
Assay Procedures. • 1. Check seeded cells for contamination using an inverted microscope. Dilute test compounds stock (10 mg/ml in DMSO) 1:10 in DMEM medium, then transfer 5 μl to a test well for a test compounds drug dilution of 1:200 and a final DMSO concentration of 1%. Control wells receive DMSO alone. Incubate in 5% CO2 at 37° C. for one hour. • 2. Prepare EGF ligand: dilute stock EGF in DMEM so that upon transfer of 10 μl dilute EGF (1:12 dilution), 25 nM final concentration is attained. • 3. Prepare fresh 10 ml HNTG* sufficient for 100 μl per well wherein HNTG* comprises: HNTG stock (2.0 ml), milli-Q H2O (7.3 ml), EDTA, 100 mM, pH 7.0 (0.5 ml), Na3VO4 0.5 M (0.1 ml) and Na4(P2O7), 0.2 M (0.1 ml). • 4. Place on ice. • 5. After two hours incubation with drug, add prepared EGF ligand to cells, 10 μl per well, to yield a final concentration of 25 nM. Control wells receive DMEM alone. Incubate, shaking, at room temperature, for 5 minutes. • 6. Remove test compound, EGF, and DMEM. Wash cells twice with PBS. Transfer HNTG* to cells, 100 μl per well. Place on ice for 5 minutes. Meanwhile, remove blocking buffer from other ELISA plate and wash with TBST as described above. • 7. With a pipette tip securely fitted to a micropipettor, scrape cells from plate and homogenize cell material by repeatedly aspirating and dispensing the HNTG* lysis buffer. Transfer lysate to a coated, blocked, and washed ELISA plate. Incubate shaking at room temperature for one hour. • 8. Remove lysate and wash 4 times with TBST. Transfer freshly diluted anti-Ptyr antibody to ELISA plate at 100 μl per well. Incubate shaking at room temperature for 30 minutes in the presence of the anti-Ptyr antiserum (1:3000 dilution in TBST). • 9. Remove the anti-Ptyr antibody and wash 4 times with TBST. Transfer the freshly diluted TAGO 30 anti-rabbit IgG antibody to the ELISA plate at 100 μl per well. Incubate shaking at room temperature for 30 minutes (anti-rabbit IgG antibody: 1:3000 dilution in TBST). • 10. Remove detection antibody and wash 4 times with TBST. Transfer freshly prepared ABTS/H2O2 solution to ELISA plate, 100 μl per well. Incubate at room temperature for 20 minutes. ABTS/H2O2 solution: 1.2 μl 30% H2O2 in 10 ml ABTS stock. • 11. Stop reaction by adding 50 μl 5N H2SO4 (optional), and determine O.D. at 410 nm. • 12. The maximal phosphotyrosine signal is determined by subtracting the value of the negative controls from the positive controls. […]
For orientation: ELISA stands for enzyme-linked immunosorbent assay.
A word on the IC50: it is the midpoint of a concentration-inhibition curve. `COc1cc(/C=C2/C(=O)Nc3ccccc32)c(-c2ccc3ccccc3c2)cc1OC` [Example 62, 3-(4,5-Dimethoxy-2-naphthalen-2-ylbenzylidene)-1,3-dihydroindol-2-one]: the IC50 was more than 100 µM. To `CCc1ccc2c(c1)/C(=C\c1cc(C(C)C)c(OC)c(C(C)C)c1)C(=O)N2` [Example 28, 3-(3,5-Diisopropyl-4-methoxbenzylidene)-5-ethyl-1,3-dihydroindol-2-one] belongs more than 100 µM. To `CC(C)c1cc(/C=C2/C(=O)Nc3ccc(Br)cc32)cc(C(C)C)c1OCCN1CCOCC1` [Example 57, 5-Bromo-3-[3,5-diisopropyl-4-(2-morpholin-4-ylethoxy)benzylidene]-1,3-dihydroindol-2-one] belongs more than 100 µM; to `COc1cccc(-c2cc(OC)c(OC)cc2/C=C2/C(=O)Nc3ccc(Cl)cc32)c1` [Example 61, 5-Chloro-3-(4,5-3′-Trimethoxybiphenyl-2-ylmethylene)-1,3-dihydroindol-2-one], more than 100 µM; to `O=C1Nc2ncccc2/C1=C\c1ccc2c(c1)CCO2` [Example 73, 3-(2,3-Dihydrobenzofuran-5-ylmethylene)-1,3-dihydropyrrolo[2,3-b]pyridin-2-one], more than 50 µM.

As to `CC(=O)Nc1ccc2c(c1)NC(=O)/C2=C/c1ccc(OCCN2CCOCC2)c(C2CCCCC2)c1` [Example 16, N-{3-[3-Cyclohexyl-4-(2-morpholin-4-ylethoxy)-benzylidene]-2-oxo-2,3-dihydro-1H-indol-6-yl}-acetamide], the IC50 worked out at 44.5 µM. The value for `COc1ccc(/C=C2/C(=O)Nc3ccc(Cl)cc32)cc1-c1cccnc1` [Example 60] was more than 100 µM; that for `COc1c(C(C)C)cc(/C=C2\C(=O)Nc3cccc(C)c32)cc1C(C)C` [Example 53, 3-(3,5-Diisopropyl-4-methoxybenzylidene)-4-methyl-1,3-dihydroindol-2-one] was 85 µM; that for `COc1cc(/C=C2/C(=O)Nc3ccccc32)c(-c2cccs2)cc1OC` [Example 39, 3-(4,5-Dimethoxy-2-thiophen-2-ylbenzylidene)-1,3-dihydroindol-2-one] was more than 100 µM. To `O=C1Nc2ccc(Cl)cc2/C1=C\c1ccc2c(c1)CCO2` [Example 14, 5-Chloro-3-(2,3-dihydro-benzofuran-5-ylmethylene)-1,3-dihydroindol-2-one] belongs more than 100 µM. To `COc1ccc(/C=C2/C(=O)Nc3cc(NC(C)=O)ccc32)cc1-c1ccsc1` [Example 18, N-[3-(4-Methoxy-3-thiophene-3-ylbenzylidene)-2-oxo-2,3-dihydro-1H-indol-6-yl]-acetamide] belongs more than 100 µM. With `COc1ccc2c(c1)NC(=O)/C2=C/c1ccc(OC)c(-c2ccsc2)c1` [Example 64, 6-Methoxy-3-(4-methoxy-3-thiophen-3-ylbenzylidene)-1,3-dihydroindol-2-one], the IC50 is more than 100 µM. To `COc1ccc(/C=C2\C(=O)Nc3cccc(C)c32)cc1C1CCCCC1` [Example 68, 3-(3-Cyclohexyl-4-methoxybenzylidene)-4-methyl-1,3-dihydroindol-2-one] belongs more than 100 µM; to `COc1c(C(C)C)cc(/C=C2/C(=O)Nc3ccc(C(C)=O)cc32)cc1C(C)C` [Example 5, 5-Acetyl-3-(3,5-diisopropyl-4-methoxybenzylidene)-1,3dihydroindol-2-one], 21.5 µM.

For the compound `COc1ccc(/C=C2/C(=O)Nc3ccc(F)cc32)cc1C1CCCC1` [Example 11, 3-(3-Cyclopentyl-4-methoxybenzylidene)-5-fluoro-1,3-dihydroindol-2-one], the IC50 amounted to 72.9 µM.

Regarding `CC(=O)Nc1ccc2c(c1)NC(=O)/C2=C/c1ccc(OCCN2CCOCC2)c(-c2ccsc2)c1` [Example 50, N-{3-[4-(2-Morpholin-4-ylethoxy)-3-thiophen-3-ylbenzylidene]-2-oxo-2,3-dihydro-1H-indol-6-yl}-acetamide], the IC50 was more than 100 µM. Take `COc1ccc(C=C2C(=O)Nc3ccccc32)cc1-c1cccc(NC(C)=O)c1` [Example 29, N-[2′-Methoxy-5′-(2-oxo-1,2-dihydroindol-3-ylidenemethyl)-biphenyl-3-yl]-acetamide]: the IC50 was more than 100 µM.

For `CC(=O)Nc1ccc2c(c1)NC(=O)/C2=C\c1ccc2c(c1)CCC(C)(C)O2` [Example 33, N-[3-(2,2-Dimethylchroman-6-ylmethylene)-2-oxo-2,3-dihydro-1H-indol-6-yl]-acetamide], the IC50 worked out at 53.2 µM. To `COc1ccc(/C=C2/C(=O)Nc3ccc(Br)cc32)cc1-c1ccccc1` [Example 13, 5-Bromo-3-(6-methoxybiphenyl-3-ylmethylene)-1,3-dihydroindol-2-one] belongs 30.8 µM. The value for `COc1ccc(C=C2C(=O)Nc3cc(NC(C)=O)ccc32)cc1-c1cccc(NC(C)=O)c1` (mixture of isomers) [Example 63, N-[3-(3′-Acetylamino-6-methoxybiphenyl-3-ylmethylene)-2-oxo-2,3-dihydro-1H-indol-6-yl]-acetamide] was more than 100 µM; that for `COc1c(C(C)C)cc(/C=C2/C(=O)Nc3ccc(Br)cc32)cc1C(C)C` [Example 54, 5-Bromo-3-(3,5-diisopropyl-4-methoxybenzylidene)-1,3-dihydroindol-2-one] was 79.3 µM. The value for `COc1ccc(/C=C2/C(=O)Nc3ccccc32)cc1C1CCCC1` [Example 10, 3-(3-Cyclopentyl-4-methoxybenzylidene)-1,3-dihydroindol-2-one] was 56.1 µM.

Regarding `COc1ccc(/C=C2/C(=O)Nc3ccc(F)cc32)cc1C(C)C` [Example 44, 5-Fluoro-3-(3-isopropyl-4-methoxybenzylidene)-1,3-dihydroindol-2-one], the IC50 stood at 76.9 µM. As to `COc1c(C(C)C)cc(/C=C2/C(=O)Nc3cc(NC(=O)OC(C)(C)C)ccc32)cc1C(C)C` [Example 52, [3-(3,5-Diisopropyl-4-methoxybenzylidene)-2-oxo-2,3-dihydro-1H-indol-6-yl]-carbamic acid tert-butyl ester], the IC50 is more than 100 µM. On to `COc1ccc(/C=C2/C(=O)Nc3ncccc32)cc1C1CCCCC1` [Example 72, 3-(3-Cyclohexyl-4-methoxybenzylidene)-1,3-dihydropyrrolo[2,3-b]pyridin-2-one], for which the IC50 is more than 100 µM. To `CC1(C)CCc2cc(/C=C3/C(=O)Nc4ccc(Cl)cc43)ccc2O1` [Example 15, 5-Chloro-3-(2,2-dimethyl-chroman-6-ylmethylene)-1,3-dihydroindol-2-one] belongs 46.5 µM; to `COC(=O)c1ccc2c(c1)/C(=C\c1cc(C(C)C)c(OC)c(C(C)C)c1)C(=O)N2` [Example 6, 3-(3,5-Diisopropyl-4-methoxybenzylidene)-2-oxo-2,3-dihydro-1H-indole-5-carboxylic acid methyl ester], 40.5 µM; to `COc1ccc(/C=C2/C(=O)Nc3ccc(Cl)cc32)cc1-c1cccs1` [Example 59, 5-chloro-3-(4-Methoxy-3-thiophen-2-ylbenzylidene)-1,3-dihydroindol-2-one], more than 100 µM.

Consider `COc1cc(C)c(C=C2C(=O)Nc3ccc(Cl)cc32)cc1C(C)C` [Example 9, 5-Chloro-3-(5-isopropyl-4-methoxy-2-methylbenzylidene)-1,3-dihydroindol-2-one], for which the IC50 came out at 34.6 µM.
